Drawing on ChEMBL document CHEMBL1201862, “PubChem BioAssay data set” (2004), this text covers AC50 and EC50 for 29 compounds.

Active and inactive are the calls of the source. Where a SMILES comes first, the peptide text is derived from it. [ ]: non-standard residue; d: D form. The star is where a group is joined. ξ: configuration not given here. Cbz = O=C(OCc1ccccc1)*; ξL = CC(C)CC(N)C(=O)O; ξP = O=C(O)C1CCCN1

Cytochrome P450 2D6, sequence (P10635 whole entry): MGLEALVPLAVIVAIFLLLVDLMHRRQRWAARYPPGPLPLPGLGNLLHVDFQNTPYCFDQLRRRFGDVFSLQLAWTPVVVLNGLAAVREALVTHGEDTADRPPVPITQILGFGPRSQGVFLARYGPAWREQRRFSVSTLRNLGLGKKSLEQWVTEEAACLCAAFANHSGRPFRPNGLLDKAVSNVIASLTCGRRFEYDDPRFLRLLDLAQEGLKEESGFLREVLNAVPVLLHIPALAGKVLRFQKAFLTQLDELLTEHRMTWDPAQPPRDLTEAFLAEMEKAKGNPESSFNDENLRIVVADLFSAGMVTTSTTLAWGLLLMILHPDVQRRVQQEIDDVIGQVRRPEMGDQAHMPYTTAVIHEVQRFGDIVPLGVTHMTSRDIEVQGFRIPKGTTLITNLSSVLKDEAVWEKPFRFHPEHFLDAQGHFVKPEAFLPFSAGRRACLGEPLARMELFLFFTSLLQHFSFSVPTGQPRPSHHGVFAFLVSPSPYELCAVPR

In one experiment the target is Cytochrome P450 3A4 (Homo sapiens, UniProt P08684).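 Also: CYP3A4 tested as one member of a cytochrome P450 panel screen.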
Cytochrome P450 3A4, sequence (P08684 whole entry): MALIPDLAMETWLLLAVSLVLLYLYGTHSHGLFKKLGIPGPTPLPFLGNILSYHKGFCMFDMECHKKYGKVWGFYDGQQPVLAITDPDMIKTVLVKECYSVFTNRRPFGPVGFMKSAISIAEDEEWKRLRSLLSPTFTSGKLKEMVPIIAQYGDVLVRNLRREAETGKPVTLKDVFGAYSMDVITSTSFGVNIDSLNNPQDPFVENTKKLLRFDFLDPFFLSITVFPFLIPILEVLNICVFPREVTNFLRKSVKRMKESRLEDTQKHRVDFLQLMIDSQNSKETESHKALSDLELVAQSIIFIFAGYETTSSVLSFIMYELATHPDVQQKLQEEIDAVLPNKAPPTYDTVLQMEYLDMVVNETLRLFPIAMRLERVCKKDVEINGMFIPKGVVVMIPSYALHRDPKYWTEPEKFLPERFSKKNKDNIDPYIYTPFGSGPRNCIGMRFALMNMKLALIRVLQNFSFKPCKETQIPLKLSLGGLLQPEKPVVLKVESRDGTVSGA
Conditions: not given
The term AC50 denotes the concentration giving half of the maximal activity seen. `O=S(=O)(NCc1cc(-c2ccc(Cl)cc2)no1)c1ccc(Cl)cc1`: the AC50 was 25.1 µM (inconclusive).
Same read-out and setting: for `CCNc1ncc2nc(-c3cc(F)cc(F)c3)c(=O)n(-c3ccccc3)c2n1` the value was 10 µM (inconclusive).
The same measure, in the same setting: as for `C=CCNC(=O)c1csc(-c2ccccc2)n1`, the figure is 28.2 µM (inconclusive).
The same measure, in the same setting: for `c1csc(CNc2cc(-c3ccoc3)ncn2)c1` the value was 25.1 µM (inconclusive).
Turning to `CCc1cc2c(nc1CC)CCN(CC/C(C)=N/O[C@@H](C)CN1CCCc3nc(C)c(C)cc31)C2`, the concentration at half-maximal activity (AC50) was 3.16 µM (inconclusive).
The same measure, in the same setting: as for `Clc1ccc(C2=CCC[C@H]3CC[C@@H]2N3)cn1`, the figure is 39.8 µM (inconclusive).
On the same count and under the same terms, for `C[C@@]1(C(=O)O)NCCc2cc(O)c(O)cc21` the value was 31.6 µM (inconclusive); for `C/C(CCN1CCc2nc(-c3ccccc3)c(-c3ccccc3)cc2C1)=N\O[C@@H](C)CN1CCCc2nc(C)c(C)cc21`, 3.98 µM (inconclusive); for `c1ccc(C2=NN[C@@H]3c4ccccc4-c4ccccc4N3C2)cc1`, 3.16 µM (inconclusive).
Still for that read-out and setting: for `COc1ccc(-c2cc(C(=O)Nc3nc4c(C)cccc4s3)c3ccccc3n2)cc1OC` the value was 11.2 µM (inconclusive); for `CCOc1ccc(N2C(=O)CN=C2Nc2ccccc2Cl)cc1`, 15.8 µM (inconclusive).
As for `Ic1ccc(N2CCN(Cc3c[nH]c4ncccc34)CC2)cc1`, the AC50 was 39.8 µM (inconclusive).

A further experiment has as its target T1, Heat shock factor protein 1 (Mus musculus, UniProt P38532).
T1 sequence (P38532 whole entry): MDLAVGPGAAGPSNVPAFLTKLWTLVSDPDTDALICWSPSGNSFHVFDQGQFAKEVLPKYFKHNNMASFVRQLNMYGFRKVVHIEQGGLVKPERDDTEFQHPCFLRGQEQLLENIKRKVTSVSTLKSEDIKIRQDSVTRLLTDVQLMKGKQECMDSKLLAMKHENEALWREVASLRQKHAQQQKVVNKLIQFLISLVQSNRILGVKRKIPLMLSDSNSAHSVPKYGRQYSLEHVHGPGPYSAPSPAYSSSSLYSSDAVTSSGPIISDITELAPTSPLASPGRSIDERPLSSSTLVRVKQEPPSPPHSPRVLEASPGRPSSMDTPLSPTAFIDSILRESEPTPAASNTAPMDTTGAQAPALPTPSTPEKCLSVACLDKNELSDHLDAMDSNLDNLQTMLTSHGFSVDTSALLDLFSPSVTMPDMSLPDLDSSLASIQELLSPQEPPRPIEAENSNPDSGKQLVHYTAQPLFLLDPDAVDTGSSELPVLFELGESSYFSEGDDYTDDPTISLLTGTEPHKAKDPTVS
The experiment can be described thus: inhibition of MG132-induced HSE-luciferase signal, confirmation, cell-based, NIH3T3, luminescence, dose retest (AID 2382).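 Also: NIH3T3 fibroblasts with HSF1-driven luciferase reporter stressed by proteasome inhibitor MG132; luminescence from HSF1-driven luciferase expression after 8 hours of MG132 stress.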
Conditions: not given
The experiment is classed as functional.
As a reminder, the EC50 is the concentration needed to bring the measured effect to its halfway point. Turning to `COC(=O)CCN1CCc2cc(N=Nc3ccc([N+](=O)[O-])cc3)ccc21`, the 50% effective concentration (EC50) was 40.1 µM (active).
The same measure, in the same setting: for `CC1(C(=O)NCCCNc2ncc(C(F)(F)F)cc2Cl)C=CC2(CCCCC2)N1C(=O)c1ccccc1` (centres undefined) the value was > 195 µM (not active); for `O=C(Nc1nnc(S(=O)(=O)N2CCCCCC2)s1)c1ccccc1Cl`, > 195 µM (not active); for `CC(C)(C)c1nc(N2CCN(C(=O)c3ccco3)CC2)c2nnn(Cc3ccccc3)c2n1`, > 195 µM (not active).
Take `COCCn1c(=O)[nH]c2cc(C(=O)NC3CCCCCC3)ccc2c1=O`: the half-maximal effective concentration (EC50) is recorded as > 195 µM (not active).
On the same count and under the same terms, as for `COC(=O)C1CCN(C(=O)c2sc3nc(-c4ccccc4)cn3c2C)CC1`, the figure is > 195 µM (not active); as for `O=C(NCc1ccccc1Cl)C1CCN(S(=O)(=O)N2CCCC2)CC1`, > 195 µM (not active).
Still for that read-out and setting: as for `CC1CCCC(C)N1C(=O)CSc1ccc(-c2ccc3c(c2)OCCO3)nn1` (centres undefined), the figure is > 195 µM (not active); as for `COc1cc(N)ccc1C(=O)O`, > 195 µM (not active); as for `CN(C(=O)C1CCOC1)c1nnc(-c2ccncc2)s1` (centres undefined), > 195 µM (not active).
For `Oc1ccccc1/C=N/Nc1nnn[nH]1`, the EC50 was > 195 µM (not active).
On the same count and under the same terms, as for `CC(C)NC(=O)CC(=O)N/N=C\c1ccccc1C(=O)O`, the figure is > 195 µM (not active); as for `C/C(CC(=O)Nc1ccc(N(C)C)cc1)=N\NC(=O)Cc1csc(N)n1`, > 195 µM (not active).
Same read-out and setting: for `CC(C)CC(NC(=O)C1CCCN1C(=O)[C@@H](C)NC(=O)OCc1ccccc1)C(=O)NCC(N)=O` (some centres undefined) (Cbz-[dA][ξP][ξL]G-NH2) the value was > 195 µM (not active).

In another experiment the target is Cytochrome P450 2C19 (Homo sapiens, UniProt P33261). The experiment can be described thus: Cytochrome panel assay with activity outcomes. Panel member name: p450-cyp2c19 Compounds with AC50 equal or less than 10 uM are considered active. Format: functional. The following applies: read-out: AC50.
Cytochrome P450 2C19, sequence (P33261 whole entry): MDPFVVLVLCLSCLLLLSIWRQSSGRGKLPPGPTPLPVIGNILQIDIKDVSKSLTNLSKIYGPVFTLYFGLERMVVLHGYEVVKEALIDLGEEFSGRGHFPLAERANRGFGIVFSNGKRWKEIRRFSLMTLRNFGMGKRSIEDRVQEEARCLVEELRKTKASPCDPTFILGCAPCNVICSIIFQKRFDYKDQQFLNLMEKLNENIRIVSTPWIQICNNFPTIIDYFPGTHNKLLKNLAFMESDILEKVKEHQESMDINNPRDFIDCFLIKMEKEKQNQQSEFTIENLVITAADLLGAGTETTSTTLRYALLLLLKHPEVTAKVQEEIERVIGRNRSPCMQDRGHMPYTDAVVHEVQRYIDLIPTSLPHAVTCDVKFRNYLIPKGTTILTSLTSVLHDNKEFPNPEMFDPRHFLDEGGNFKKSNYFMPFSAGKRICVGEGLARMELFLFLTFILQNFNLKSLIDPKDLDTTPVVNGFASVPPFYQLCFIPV
As to `CCOc1ccc(N2C(=O)CN=C2Nc2ccccc2Cl)cc1`, the half-maximal activity concentration (AC50) is 11.2 µM (inconclusive).

The next experiment has as its target Cytochrome P450 2D6 (Homo sapiens, UniProt P10635).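 Also: CYP2D6 member of a cytochrome P450 panel assay.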
Conditions: not given
Regarding `C/C(CCN1CCc2nc(-c3ccccc3)c(-c3ccccc3)cc2C1)=N\O[C@@H](C)CN1CCCc2nc(C)c(C)cc21`, the half-maximal activity concentration (AC50) was 3.16 µM (inconclusive).

Another experiment has as its system Streptococcus sp. 'group A'. The experiment can be described thus: growth inhibition of control SK(-) GAS strain, dose response, counter-screen for streptokinase expression inhibitor project, luminescence, kanamycin, BacTiterGlo, confirmation (AID 1900).
Conditions: not given
Format: functional, organism-based. On the technique in general: Counterscreens check selectivity or assay interference.
For the compound `N#CCC(=O)Nc1ccc(C(=O)OC(C(=O)Nc2cc(C(F)(F)F)ccc2Cl)c2ccccc2)cc1` (centres undefined), the 50% effective concentration (EC50) is 2.31 µM (active).
As to `O=C(Nc1ccc(F)cc1)c1nc(O)c2nnn(Cc3cccc4ccccc34)c2n1`, the EC50 was 2.58 µM (active).
Turning to `C[C@H]1CC[C@@]2(C)[C@@H](CC[C@@H]3[C@@H]2CC[C@]2(C)[C@@H](O)CC[C@@H]32)C1`, the EC50 was 0.643 µM (active).

For the next experiment, the system named is Streptococcus. The experiment can be described thus: Group A Streptococcus viability loss, dose response, counter-screen for streptokinase expression inhibitor project, luminescence, BacTiterGlo (AID 1915).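 Also: potency for reduction of bacterial viability or growth.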 Format: functional, organism-based.
Conditions: not given
In the case of `N#CCC(=O)Nc1ccc(C(=O)OC(C(=O)Nc2cc(C(F)(F)F)ccc2Cl)c2ccccc2)cc1` (centres undefined), the 50% effective concentration (EC50) was 6.92 µM (active).
In the case of `O=C(Nc1ccc(F)cc1)c1nc(O)c2nnn(Cc3cccc4ccccc34)c2n1`, the concentration giving a half-maximal response (EC50) is 37.2 µM (active).
The same measure, in the same setting: for `C[C@H]1CC[C@@]2(C)[C@@H](CC[C@@H]3[C@@H]2CC[C@]2(C)[C@@H](O)CC[C@@H]32)C1` the value was 2.65 µM (active).
